Measured values from publication PMC13223435, “Synthesis and Antiproliferative Activity against Melanoma Cells of New Heterocyclic Hybrids Based on Pyridine and Pyrimidine Scaffolds” (Current Medicinal Chemistry, 2025).

Legend:
melanoma A375 cells = assay: WST-1 antiproliferative assay; type: cell-based; conditions: Homo sapiens, A-375
Excerpt: (§1) The A375 malignant melanoma cell line (ECACC 88113005, Salisbury, UK) was procured from the European Collection of Authenticated Cell Cultures (ECACC). The primary culture of human dermal fibroblasts (HDF) was derived from skin according to the protocol approved by the Ethical Committee of Pomeranian Medical University in Szczecin (KB-0012/02/18). The detailed protocol of fibroblast isolation, authentication, and cell culture conditions was previously described. Both cell lines were cultivated in a humidified incubator under conditions of 5% CO2 and a temperature of 37°C, using Dulbecco’s modified Eagle’s medium (DMEM) with 4500 mg/L glucose (Sigma-Aldrich Merck Group, St. Louis, MO, USA) enriched with 10% heat-inactivated fetal bovine serum (FBS, EURx, Gdańsk, Poland), 2 mM L-glutamine (Sigma-Aldrich Merck Group, St. Louis, MO, USA), and penicillin-streptomycin solution (Sigma-Aldrich Merck Group, St. Louis, MO, USA). Regular assessments for the presence of mycoplasma were conducted using the MycoAlert® Mycoplasma Detection Kit (Lonza, Rockland, ME, USA).
(§2) The evaluation of the antiproliferative activity of the compounds was performed using the Cell Proliferation Reagent WST-1 assay (Roche, Germany). This assay relies on the reduction of tetrazolium salt to formazan, with the final amount of formazan proportional to the number of viable cells. In our study, A375 cells (2×10^3) and HDF (3×10^3) were initially seeded into 96-well plates and cultured in a humidified atmosphere of 5% CO2 at 37°C. 24 hours later, the culture medium was replaced with a medium containing the tested compounds for a 48-hour incubation period at specified final concentrations. […] For control purposes, cells without the tested compounds, which contained only the vehicle (DMSO), were used. Additionally, a blank sample consisting of tested compounds in a medium (without cells) was included. After the 48-hour incubation period, the WST-1 reagent was introduced and allowed to incubate with the cells for 30 minutes. The absorbance was subsequently measured at 450 nm with background correction at 620 nm using a microplate reader (Infinite 200 Pro, Tecan, Männedorf, Switzerland). Cell viability was calculated according to the following formula: [(Atest–Ablank)/ (Acontrol − Ablank)] × 100%. These measurements were conducted in triplicate for at least three independent experiments.
In the screening step, 10 µM solutions of all 33 compounds were tested on A375 cells. […] Selected compounds (2c, 18e, 16b, 29) were tested at concentrations of 0.1, 1, 10, 50, and 100 µM. The IC50 values were determined using an online calculator (AAT Bioquest, Inc., Quest Graph™ IC50 Calculator (v.1). Retrieved from https://www.aatbio.com/tools/IC50-calculator-v1, accessed on: 2022, December 12).

[1] = tested on: human dermal fibroblasts (HDF); assay: WST-1 assay on non-tumor cells (selectivity); type: cell-based
Excerpt: as §1, §2
For that purpose, non-tumor HDF cells were used and the concentrations of tested compounds were increased to 200 µM (0.4% DMSO) and 500 µM (1% DMSO). Appropriate controls were prepared for higher concentrations of DMSO.

COc1cc(Cn2cc(-c3cccs3)ccc2=S)cc(OC)c1OC [Compound 16b]
activity at 10 µM (melanoma A375 cells; 10 µM, 48 h of treatment, A375, read-out: Cell proliferation (% control)): 42.8 ± 22.9% | IC50 (melanoma A375 cells; 48 hours of treatment): 1.85 ± 0.44 µM | IC50 ([1]; Fibroblast, 48 hours of treatment, normal human dermal fibroblasts): 120 ± 8.42 µM | Selectivity index (SI) ([1]; IC50 normal cells (HDF)/IC50 cancer cell (A375)): 65.08
